{"source": "patent US5028590A", "about": "“Derivatives of A54145 cyclic peptides” (priority 1988, dated 1991)", "key": {"[1]": {"system": "Staphylococcus aureus X1.1", "test": "Agar-dilution MIC, Staphylococcus aureus X1.1", "assay_type": "cell-based", "method": "(§1) The MIC's in Table IV were determined by conventional agar-dilution assays."}, "[2]": {"system": "Streptococcus sp. group D 2041", "test": "Agar-dilution MIC, Streptococcus sp. group D 2041", "assay_type": "cell-based", "method": "as §1"}, "[3]": {"system": "Staphylococcus epidermidis 222", "test": "Agar-dilution MIC, Staphylococcus epidermidis 222", "assay_type": "cell-based"}, "Streptococcus pyogenes": {"system": "Streptococcus pyogenes", "test": "In vivo protection of experimentally infected mice (ED50)", "conditions": "administered subcutaneously, doses given 1 and 4 hours postinfection", "method": "The formula 1a compounds have shown in vivo antimicrobial activity against experimentally-induced infections in laboratory animals. When two doses of test compound were administered to mice experimentally infected with Streptococcus pyogenes or Staphylococcus aureus, the activity observed was measured as an ED50 value [effective dose in mg/kg to protect 50% of the test animals: see Warren Wick, et al., J. Bacteriol. 81, 233-235 (1961)]."}, "[4]": {"system": "Staphylococcus aureus S13E", "conditions": "agar dilution", "method": "as §1"}, "[5]": {"test": "Relative toxicity, median lethal dose in mice", "assay_type": "in vivo", "conditions": "administered IP in mice", "from_the_text": "Table VI summarizes the relative toxicity of illustrative formula 1a compounds.\n^a When administered IP in mice"}, "[6]": {"system": "Streptococcus pneumoniae Park 1", "assay_type": "cell-based", "conditions": "agar dilution", "method": "as §1"}, "[7]": {"system": "Staphylococcus epidermidis EPI1", "assay_type": "cell-based", "conditions": "agar dilution", "method": "as §1"}, "[8]": {"system": "Staphylococcus aureus V41", "test": "Agar-dilution MIC, Staphylococcus aureus V41", "assay_type": "cell-based", "method": "as §1"}, "[9]": {"system": "Staphylococcus aureus X400", "test": "Agar-dilution MIC, Staphylococcus aureus X400", "assay_type": "cell-based", "method": "as §1"}, "[10]": {"system": "Streptococcus sp. group D X66", "test": "Agar-dilution MIC, Streptococcus sp. group D X66", "assay_type": "cell-based", "method": "as §1"}, "[11]": {"system": "Streptococcus pyogenes C203", "test": "Agar-dilution MIC, Streptococcus pyogenes C203", "assay_type": "cell-based", "method": "as §1"}}, "data": [{"substance": "NTrp -(n-Decanoyl)-A54145F Nucleus [Compound 10]", "values": [{"measurement": "MIC", "setting": "[1]", "result": 16, "unit": "µg/mL"}, {"measurement": "MIC", "setting": "[2]", "result": 128, "unit": "µg/mL"}, {"measurement": "MIC", "setting": "[3]", "result": 16, "unit": "µg/mL"}, {"measurement": "ED50 vs. Streptococcus pyogenes", "setting": "Streptococcus pyogenes", "result": 10.8, "unit": "mg/kg × 2"}, {"measurement": "MIC", "setting": "[4]", "result": 16, "unit": "µg/mL"}, {"measurement": "Median Lethal Dose", "setting": "[5]", "result": "> 505", "unit": "mg/kg"}, {"measurement": "MIC", "setting": "[6]", "result": 32, "unit": "µg/mL"}, {"measurement": "MIC", "setting": "[7]", "result": 16, "unit": "µg/mL"}, {"measurement": "MIC", "setting": "[8]", "result": 16, "unit": "µg/mL"}, {"measurement": "MIC", "setting": "[9]", "result": 16, "unit": "µg/mL"}, {"measurement": "MIC", "setting": "[10]", "result": 128, "unit": "µg/mL"}, {"measurement": "MIC", "setting": "[11]", "result": 4, "unit": "µg/mL"}]}, {"substance": "NTrp -(n-Dodecanoyl)-A54145A Nucleus [Compound 4]", "values": [{"measurement": "MIC", "setting": "[1]", "result": 1, "unit": "µg/mL"}, {"measurement": "MIC", "setting": "[2]", "result": 8, "unit": "µg/mL"}, {"measurement": "MIC", "setting": "[3]", "result": 1, "unit": "µg/mL"}, {"measurement": "ED50 vs. Streptococcus pyogenes", "setting": "Streptococcus pyogenes", "result": 1.15, "unit": "mg/kg × 2"}, {"measurement": "MIC", "setting": "[4]", "result": 2, "unit": "µg/mL"}, {"measurement": "Median Lethal Dose", "setting": "[5]", "result": 321, "unit": "mg/kg"}, {"measurement": "MIC", "setting": "[6]", "result": 2, "unit": "µg/mL"}, {"measurement": "MIC", "setting": "[7]", "result": 1, "unit": "µg/mL"}, {"measurement": "MIC", "setting": "[8]", "result": 1, "unit": "µg/mL"}, {"measurement": "MIC", "setting": "[9]", "result": 1, "unit": "µg/mL"}, {"measurement": "MIC", "setting": "[10]", "result": 4, "unit": "µg/mL"}, {"measurement": "MIC", "setting": "[11]", "result": 0.125, "unit": "µg/mL"}]}, {"substance": "NTrp -(n-Nonanoyl)-A54154A Nucleus [Compound 6]", "values": [{"measurement": "MIC", "setting": "[1]", "result": 32, "unit": "µg/mL"}, {"measurement": "MIC", "setting": "[3]", "result": 16, "unit": "µg/mL"}, {"measurement": "ED50 vs. Streptococcus pyogenes", "setting": "Streptococcus pyogenes", "result": 10.6, "unit": "mg/kg × 2"}, {"measurement": "MIC", "setting": "[4]", "result": 32, "unit": "µg/mL"}, {"measurement": "Median Lethal Dose", "setting": "[5]", "result": "> 510", "unit": "mg/kg"}, {"measurement": "MIC", "setting": "[6]", "result": 64, "unit": "µg/mL"}, {"measurement": "MIC", "setting": "[7]", "result": 16, "unit": "µg/mL"}, {"measurement": "MIC", "setting": "[8]", "result": 32, "unit": "µg/mL"}, {"measurement": "MIC", "setting": "[9]", "result": 32, "unit": "µg/mL"}, {"measurement": "MIC", "setting": "[10]", "result": 128, "unit": "µg/mL"}, {"measurement": "MIC", "setting": "[11]", "result": 4, "unit": "µg/mL"}]}, {"substance": "NTrp -(n-Tetradecanoyl)-A54145 Nucleus [Compound 26]", "values": [{"measurement": "MIC", "setting": "[1]", "result": 0.25, "unit": "µg/mL"}, {"measurement": "MIC", "setting": "[2]", "result": 4, "unit": "µg/mL"}, {"measurement": "MIC", "setting": "[3]", "result": 0.5, "unit": "µg/mL"}, {"measurement": "MIC", "setting": "[4]", "result": 0.25, "unit": "µg/mL"}, {"measurement": "MIC", "setting": "[6]", "result": 0.125, "unit": "µg/mL"}, {"measurement": "MIC", "setting": "[7]", "result": 0.5, "unit": "µg/mL"}, {"measurement": "MIC", "setting": "[8]", "result": 0.25, "unit": "µg/mL"}, {"measurement": "MIC", "setting": "[9]", "result": 0.5, "unit": "µg/mL"}, {"measurement": "MIC", "setting": "[10]", "result": 2, "unit": "µg/mL"}, {"measurement": "MIC", "setting": "[11]", "result": 0.06, "unit": "µg/mL"}]}, {"substance": "NTrp -(n-Undecanoyl)-A54145A Nucleus [Compound 2]", "values": [{"measurement": "MIC", "setting": "[1]", "result": 2, "unit": "µg/mL"}, {"measurement": "MIC", "setting": "[2]", "result": 32, "unit": "µg/mL"}, {"measurement": "MIC", "setting": "[3]", "result": 2, "unit": "µg/mL"}, {"measurement": "ED50 vs. Streptococcus pyogenes", "setting": "Streptococcus pyogenes", "result": 1.65, "unit": "mg/kg × 2"}, {"measurement": "MIC", "setting": "[4]", "result": 4, "unit": "µg/mL"}, {"measurement": "Median Lethal Dose", "setting": "[5]", "result": "> 520", "unit": "mg/kg"}, {"measurement": "MIC", "setting": "[6]", "result": 2, "unit": "µg/mL"}, {"measurement": "MIC", "setting": "[7]", "result": 2, "unit": "µg/mL"}, {"measurement": "MIC", "setting": "[8]", "result": 4, "unit": "µg/mL"}, {"measurement": "MIC", "setting": "[9]", "result": 4, "unit": "µg/mL"}, {"measurement": "MIC", "setting": "[10]", "result": 16, "unit": "µg/mL"}, {"measurement": "MIC", "setting": "[11]", "result": 0.5, "unit": "µg/mL"}]}]}
